This test has as its target T1, rat NaPi-2b (Rattus norvegicus, UniProt Q9JJ09).
T1 construct: expressed in transfected cells; host or cells: Xenopus oocytes injected with cRNA
T1 sequence (Q9JJ09 1-695): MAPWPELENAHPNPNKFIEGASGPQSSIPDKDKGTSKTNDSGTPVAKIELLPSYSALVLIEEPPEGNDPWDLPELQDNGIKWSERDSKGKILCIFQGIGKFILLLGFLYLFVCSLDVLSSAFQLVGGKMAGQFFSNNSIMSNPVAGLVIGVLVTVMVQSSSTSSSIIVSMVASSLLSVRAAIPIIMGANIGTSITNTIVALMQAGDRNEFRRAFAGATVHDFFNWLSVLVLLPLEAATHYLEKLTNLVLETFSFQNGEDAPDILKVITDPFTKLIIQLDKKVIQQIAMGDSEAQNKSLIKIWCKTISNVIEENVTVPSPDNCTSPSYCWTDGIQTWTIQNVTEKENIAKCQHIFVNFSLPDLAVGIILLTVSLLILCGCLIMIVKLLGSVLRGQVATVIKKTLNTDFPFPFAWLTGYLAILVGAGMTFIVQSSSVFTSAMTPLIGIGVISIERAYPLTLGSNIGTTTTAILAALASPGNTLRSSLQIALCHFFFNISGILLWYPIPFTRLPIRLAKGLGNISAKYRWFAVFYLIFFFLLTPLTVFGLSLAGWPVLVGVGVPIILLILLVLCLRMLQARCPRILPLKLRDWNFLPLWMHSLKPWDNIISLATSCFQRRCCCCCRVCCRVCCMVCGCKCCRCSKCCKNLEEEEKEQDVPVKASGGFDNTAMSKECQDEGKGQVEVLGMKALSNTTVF
Kind of test: Sodium-dependent phosphate uptake of Xenopus oocytes which expressed NaPi-2b (32P). Format: cell-based. To be noted: Xenopus oocytes expressing rat NaPi-2b, 32P radioactive phosphorus; read-out: IC50 (phosphate uptake inhibitory activity). The method, boiled down:
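Rat NaPi-2b cloned from small-intestine cDNA; cRNA injected into Xenopus oocytes, expression for 2 days. Phosphate uptake inhibition measured with 32P; percent inhibition at 300 μM and 100 μM read from the same inhibition curve.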

SMILES strings stand for the structures.

Broadly, the IC50 is the midpoint of a concentration-inhibition curve.

`CCN(CC)CCN(C)Cc1cccc(C(=O)Nc2sc3c(c2C(=O)N/N=C/c2ccc(F)cc2)CCCC3)c1` [Compound 611, 3-{[(2-Diethylamino-ethyl)-methyl-amino]-methyl}-N-[3-(4-fluoro-benzylidene-hydrazinocarbonyl)-4,5,6,7-tetrahydro-benzo-[b]thiophen-2-yl]-benzamide]: the IC50 is 2.16 µM.
Take `CCN(CC)CCN(C)Cc1cccc(C(=O)Nc2sc3c(c2C(=O)N/N=C/c2cccc(F)c2)CCCC3)c1` [Compound 612, 3-{[(2-Diethylamino-ethyl)-methyl-amino]-methyl}-N-[3-(3-fluoro-benzylidene-hydrazinocarbonyl)-4,5,6,7-tetrahydro-benzo-[b]thiophen-2-yl]-benzamide]: the IC50 worked out at 2.34 µM.
In the case of `CCN(CC)CCN(C)Cc1cccc(C(=O)Nc2sc3c(c2C(=O)N/N=C/c2ccc(Cl)c(C(F)(F)F)c2)CCCC3)c1` [Compound 613, N-[3-(4-Chloro-3-trifluoromethyl-benzylidene-hydrazinocarbonyl)-4,5,6,7-tetrahydro-benzo[b]thiophen-2-yl]-3-{[(2-diethylamino-ethyl)-methyl-amino]-methyl}-benzamide] it was 1.41 µM; in that of `CCN(CC)CCN(C)Cc1cccc(C(=O)Nc2sc3c(c2C(=O)N/N=C/c2ccc(OC)cc2)CCCC3)c1` [Compound 614, 3-{[(2-Diethylamino-ethyl)-methyl-amino]-methyl}-N-[3-(4-methoxy-benzylidene-hydrazinocarbonyl)-4,5,6,7-tetrahydro-benzo-[b]thiophen-2-yl]-benzamide], 3.29 µM.
In the case of `Cc1ccc(/C=N/NC(=O)c2c(NC(=O)c3cccc(CN4CCC(N5CCCCC5)CC4)c3)sc3c2CCCC3)cc1C` [Compound 615, 3-[1,4′]Bipiperidinyl-1′-ylmethyl-N-[3-(3,4-dimethyl-benzylidene-hydrazinocarbonyl)-4,5,6,7-tetrahydro-benzo[b]thiophen-2-yl]-benzamide] it was 2.08 µM; in that of `Cc1ccc(/C=N/NC(=O)c2c(NC(=O)c3cccc(CN4CCC(N5CCCCC5)CC4)c3)sc3c2CCCC3)cc1` [Compound 616, 3-[1,4′]Bipiperidinyl-1′-ylmethyl-N-[3-(4-methyl-benzylidene-hydrazinocarbonyl)-4,5,6,7-tetrahydro-benzo[b]thiophen-2-yl]-benzamide], 13.9 µM; in that of `O=C(Nc1sc2c(c1C(=O)N/N=C/c1ccc(F)cc1)CCCC2)c1cccc(CN2CCC(N3CCCCC3)CC2)c1` [Compound 617, 3-[1,4′]Bipiperidinyl-1′-ylmethyl-N-[3-(4-fluoro-benzylidene-hydrazinocarbonyl)-4,5,6,7-tetrahydro-benzo[b]thiophen-2-yl]-benzamide], 3.68 µM.
In the case of `O=C(Nc1sc2c(c1C(=O)N/N=C/c1cccc(F)c1)CCCC2)c1cccc(CN2CCC(N3CCCCC3)CC2)c1` [Compound 618, 3-[1,4′]Bipiperidinyl-1′-ylmethyl-N-[3-(3-fluoro-benzylidene-hydrazinocarbonyl)-4,5,6,7-tetrahydro-benzo[b]thiophen-2-yl]-benzamide], the IC50 came out at 4.25 µM.
The result for `O=C(Nc1sc2c(c1C(=O)N/N=C/c1ccc(Cl)c(C(F)(F)F)c1)CCCC2)c1cccc(CN2CCC(N3CCCCC3)CC2)c1` [Compound 619, 3-[1,4′]Bipiperidinyl-1′-ylmethyl-N-[3-(4-chloro-3-trifluoromethyl-benzylidene-hydrazinocarbonyl)-4,5,6,7-tetrahydro-benzo[b]thiophen-2-yl]-benzamide] reads < 3 µM.
In the case of `COc1ccc(/C=N/NC(=O)c2c(NC(=O)c3cccc(CN4CCC(N5CCCCC5)CC4)c3)sc3c2CCCC3)cc1` [Compound 620, 3-[1,4′]Bipiperidinyl-1′-ylmethyl-N-[3-(4-methoxy-benzylidene-hydrazinocarbonyl)-4,5,6,7-tetrahydro-benzo[b]thiophen-2-yl]-benzamide] it was 3.58 µM; in that of `Cc1ccc(/C=N/NC(=O)c2c(NC(=O)c3cccc(CN4CCN(CCO)CC4)c3)sc3c2CCCC3)cc1C` [Compound 621, N-[3-(3,4-Dimethyl-benzylidene-hydrazinocarbonyl)-4,5,6,7-tetrahydro-benzo[b]thiophen-2-yl]-3-[4-(2-hydroxy-ethyl)-piperazin-1-ylmethyl]-benzamide], < 3 µM.
With `Cc1ccc(/C=N/NC(=O)c2c(NC(=O)c3cccc(CN4CCN(CCO)CC4)c3)sc3c2CCCC3)cc1` [Compound 622, 3-[4-(2-Hydroxy-ethyl)-piperazin-1-ylmethyl]-N-[3-(4-methyl-benzylidene-hydrazinocarbonyl)-4,5,6,7-tetrahydro-benzo-[b]thiophen-2-yl]-benzamide], the IC50 was < 3 µM.
In the case of `O=C(Nc1sc2c(c1C(=O)N/N=C/c1ccc(F)cc1)CCCC2)c1cccc(CN2CCN(CCO)CC2)c1` [Compound 623, N-[3-(4-Fluoro-benzylidene-hydrazinocarbonyl)-4,5,6,7-tetrahydro-benzo[b]thiophen-2-yl]-3-[4-(2-hydroxy-ethyl)-piperazin-1-ylmethyl]-benzamide] it was < 3 µM; in that of `O=C(Nc1sc2c(c1C(=O)N/N=C/c1cccc(F)c1)CCCC2)c1cccc(CN2CCN(CCO)CC2)c1` [Compound 624, N-[3-(3-Fluoro-benzylidene-hydrazinocarbonyl)-4,5,6,7-tetrahydro-benzo[b]thiophen-2-yl]-3-[4-(2-hydroxy-ethyl)-piperazin-1-ylmethyl]-benzamide], < 3 µM; in that of `O=C(Nc1sc2c(c1C(=O)N/N=C/c1ccc(Cl)c(C(F)(F)F)c1)CCCC2)c1cccc(CN2CCN(CCO)CC2)c1` [Compound 625, N-[3-(4-Chloro-3-trifluoromethyl-benzylidene-hydrazinocarbonyl)-4,5,6,7-tetrahydro-benzo[b]thiophen-2-yl]-3-[4-(2-hydroxy-ethyl)-piperazin-1-ylmethyl]-benzamide], < 3 µM.
The result for `COc1ccc(/C=N/NC(=O)c2c(NC(=O)c3cccc(CN4CCN(CCO)CC4)c3)sc3c2CCCC3)cc1` [Compound 626, 3-[4-(2-Hydroxy-ethyl)-piperazin-1-ylmethyl]-N-[3-(4-methoxy-benzylidene-hydrazinocarbonyl)-4,5,6,7-tetrahydro-benzo-[b]thiophen-2-yl]-benzamide] reads < 3 µM.
The result for `O=C(Nc1sc2c(c1C(=O)N/N=C/c1ccc(Cl)c(C(F)(F)F)c1)CCCC2)c1cccc(CN2CCC(CO)CC2)c1` [Compound 643, N-[3-(4-Chloro-3-trifluoromethyl-benzylidene-hydrazinocarbonyl)-4,5,6,7-tetrahydro-benzo[b]thiophen-2-yl]-3-(4-hydroxymethyl-piperidin-1-ylmethyl)-benzamide] reads 3.68 µM; that for `COc1ccc(/C=N/NC(=O)c2c(NC(=O)c3cccc(CN4CCC(CO)CC4)c3)sc3c2CCCC3)cc1` [Compound 644, 3-(4-Hydroxymethyl-piperidin-1-ylmethyl)-N-[3-(4-methoxy-benzylidene-hydrazinocarbonyl)-4,5,6,7-tetrahydro-benzo-[b]thiophen-2-yl]-benzamide], 5.91 µM; that for `Cc1ccc(CNNC(=O)c2c(C)csc2NC(=O)c2cccc(CSCCCO)c2)cc1C` [Compound 645, N-{3-[N′-(3,4-Dimethyl-benzyl)-hydrazinocarbonyl]-4-methyl-thiophen-2-yl}-3-(3-hydroxy-propylsulfanylmethyl)-benzamide], < 3 µM.

The values above are taken from patent US8134015B2, “Compound inhibiting in vivo phosphorous transport and medicine containing the same” (Kyowa Hakko Kirin Co., Ltd., priority 2003, dated 2012).
